Experimental data published in patent publication US20120269725A1, “TARGETED RADIOLABELED COMPOUNDS AND THEIR USE FOR THE TREATMENT AND DIAGNOSIS OF CANCER” (priority 2009, published 2012).

Experiments:
Type in all cases: in vivo, athymic NCr-nu/nu mice
[1] = tested on: subcutaneous LS174T tumors (human colorectal adenocarcinoma); assay: Biodistribution, clearance and planar imaging in athymic mice bearing subcutaneous LS174T xenografts; conditions: IV administration
Procedure: The in vivo properties and pharmacology of several compounds of the present invention were initially tested in athymic mice bearing subcutaneous LS174T tumors (human colorectal adenocarcinoma), which have several desirable properties such as rapid growth when implanted subcutaneously (SQ), good vascularization and the availability of considerable historical data for the parent compound IUdR. The clearance rates from blood, tumor, and associated organs were analyzed to determine the structure-pharmacokinetics relationship. The first compounds studied were 6b-fast and 6b-slow. Four-to-six-weeks old female athymic NCr-nu/nu mice (NCI-Frederic, Md., USA) were allowed to acclimate in Applicants' facility after delivery for no less than 5 days. All protocols involving animals were approved by the University of Nebraska Institutional Animal Care and Use Committee. Mice were housed in microisolator cages with free access to sterilized standard rodent diet and water. LS174T cells in 0.1 mL of serum-free medium were implanted SQ at 5×10^6 cells/mouse. One week later identification transponders were implanted, also SQ. Body weights and tumor sizes were monitored twice weekly, and approximately 10 days after the cell implant, mice were randomized for biodistribution studies.
Each of the two isomers, 6b-fast and 6b-slow, was tested independently in separate groups of mice. The comparison to the parent compound, IUdR, was made by co-injecting ^131IUdR with a particular ^125I-labeled diastereomer. Compounds were administered intravenously (IV) via a tail vein.
Biodistribution was conducted at 1 h, 4 h, 24 and 48 h after the administration of radiolabeled compounds (n=6 per time point). The injection doses contained approximately 1 μCi (37 kBq) ^131IUdR and 5 μCi (185 kBq) ^125I-labeled 6b-fast or 6b-slow dissolved in 0.2 mL phosphate buffered saline containing 0.1% bovine serum albumin, pH 7.2 (PBS). All syringes were weighted after loading with the compound solution and immediately after the injection to determine the weight of the injected dose. Triplicate standards of the injected dose were prepared in PBS and counted in a gamma counter just before the beginning of the experiment. The radioactive content of these standards was also determined alongside all tissues after the necropsy to correct the tissue uptake for the decay of the radioisotope. Blood, liver, spleen, heart, lungs, kidneys, brain, tumor and tail were collected during necropsy. Tissues were rinsed in ice-cold saline, patted dry and weighed. The tail was collected to validate the quality of the IV injections.
FIG. 7 presents whole body images for a typical time course distribution (24 h, 48 h, and 72 h) of 6b administered as a diastereomeric mixture in LS174T-bearing athymic mice. The images were acquired 1, 2, and 3 days after the administration of the compound. […] It is also apparent that based on pharmacokinetics, the use of these compounds can be tailored to a specific malignancy and its anatomical location.

[2] = tested on: early stage OVCAR-3 tumors; assay: Dose-response therapy in early stage OVCAR-3 tumors
Procedure: Female athymic NCr-nu/nu mice were received from NCI-Frederick (MD, USA) and were allowed to acclimate in Applicants' facilities until the age of 8 weeks. After this period of acclimation, 2.5×10^8 OVCAR-3 cells were implanted into 36 mice. Four days later, each mouse received SQ transponders (micro-identification chips) and mice were divided into three groups at random: control mice receiving sham IP injections of 0.6 mL vehicle (n=12); mice in the high dose group were treated with one IP dose of 0.7 mCi (26 MBq) 8b slow in 0.6 mL vehicle (n=12); and mice the low dose group were treated with one IP dose of 0.29 mCi (10.7 MBq) 8b slow in 0.6 mL vehicle (n=12).
Five weeks after treatment, all mice were sacrificed and full necropsy was performed. A single dose of 8b slow given at the early stages of the disease reduces the tumor burden by […]. The response of solid tumors seems better than the cells in ascites, […] in the weight of the solid tumor deposits (FIG. 17). The uptake and retention of radioactivity was measured in several tissues and in tumor. The radioactivity levels in blood are ˜30 times lower than in the tumor cells in ascites and ˜10 times lower than in the solid tumors.

advanced OVCAR-3 tumors = assay: Therapy with fractionated doses in advanced OVCAR-3 tumors; conditions: IP fractionated doses
Procedure: Female athymic NCr-nu/nu mice were received from NCI-Frederic (MD, USA). Identification transponders were implanted SQ in mice acclimated for one week. When mice reached the age of 8-weeks, all mice received IP implant of 5.6×10^8 OVCAR-3 cells/mouse in 0.5 mL media without serum. This cancer cell load is double the size of implant described in Example 6 and allows for a rapid development of the advanced stages of the tumor. One weeks later mice were separated into […] via a lottery as follows: mice in the control group were left untreated; mice the vehicle group received 0.3 mL vehicle (PBS containing 0.5% albumin and 5% DMSO); the remaining mice in groups ×1, ×2, and ×3 received an IP injection of 8b-slow in 0.3 mL vehicle; two weeks later mice in groups ×2 and ×3 received an IP injection of 8b-slow in 0.3 mL vehicle; and four weeks after the first dose mice in group ×3 received an IP injection of 8b-slow in 0.3 mL vehicle. Using the same schedule, mice in the vehicle group were given IP injections of 0.3 mL vehicle. The average total administered doses were as follows: group ×1: 0.5 mCi […]; group ×2: 1 mCi (37 MBq), and group ×3: 1.5 mCi (55.5 MBq). All mice were killed six weeks after the administration of the first dose. […] The data analyses confirmed that the observed differences are statistically significant. […]

[3] = five weeks after single IP dose
[4] = single IP dose, five weeks after treatment

Which “clearance from blood and normal tissues” value [1] does the source give for `CC(C)(C)c1cc(C(C)(C)C)c2c(c1F)COP(=O)(OC[C@H]1O[C@@H](n3cc([125I])c(=O)[nH]c3=O)C[C@@H]1O)O2` (stereo partly drawn) [8b slow, 5-[^125I]-Iodo-5′-O-[cyclo-3,5-di-(tert-butyl)-6-fluoroSaligenyl]-2′-deoxyuridine Monophosphate] here?
The value was “rapid clearance from blood and normal tissues”.

What about the liver uptake [2, 3] of the same compound?
The liver uptake was less than 0.003 % ID/g.

And the “radioactivity level in blood, times lower than in the solid tumors” value [2, 3]?
Its value is roughly 10 times.

What about the “radioactivity level in blood, times lower than in the tumor cells in ascites” value [2, 3] of the same compound?
Its value is roughly 30 times.

And the “adverse effects by hemoglobin and hematocrit levels” value ([2]; single IP dose 0.29 or 0.7 mCi)?
Its value is “not causing noticeable adverse effects”.

And the “reduction in the weight of the solid tumor deposits” value [2, 4]?
Its value is greater than 300%.

And the “reduction of tumor burden” value [2, 4]?
Its value is greater than 230%.

What about the “relationship between tumor size and total administered doses” value (advanced OVCAR-3 tumors; total 0.5, 1, 1.5 mCi, six weeks after first dose) of the same compound?
Its value is “unambiguous dose-response relationship”.

And the “hematological adverse effects (hemoglobin and hematocrit)” value (advanced OVCAR-3 tumors; total 0.5-1.5 mCi)?
The value was “do not produce any significant hematological adverse effects”.
